By EC50 is commonly meant the concentration that produces a half-maximal response.

Positions count from the first letter of the chain named.

Experimental findings from publication PMC5362899, “Structural insights into the nucleotide base specificity of P2X receptors” (Scientific Reports, 2017) are described below.

Type in all cases: cell-based
One experiment has as its target T1, rat P2X4 WT (rWT) (Rattus norvegicus, UniProt P51577).
T1 construct: rat P2X4 (NP_113782.1; WT and mutants) were transcribed from pGEMHE plasmids; expressed in transfected cells; host or cells: Xenopus laevis oocytes injected with cRNA from pGEMHE
T1 sequence (P51577 1-388): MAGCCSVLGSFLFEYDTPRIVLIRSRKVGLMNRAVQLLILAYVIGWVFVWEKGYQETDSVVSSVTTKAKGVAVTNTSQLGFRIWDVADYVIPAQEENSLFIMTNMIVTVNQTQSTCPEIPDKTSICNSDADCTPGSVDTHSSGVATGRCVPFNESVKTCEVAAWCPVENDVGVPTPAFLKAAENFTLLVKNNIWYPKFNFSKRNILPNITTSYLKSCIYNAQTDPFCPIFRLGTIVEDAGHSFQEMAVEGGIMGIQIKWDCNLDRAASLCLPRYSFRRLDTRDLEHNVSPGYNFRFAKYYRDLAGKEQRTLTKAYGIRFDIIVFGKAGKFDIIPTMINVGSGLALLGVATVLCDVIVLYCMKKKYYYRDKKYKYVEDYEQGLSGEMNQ
Briefly: Two-Electrode Voltage Clamp recording, rat P2X4 WT in Xenopus oocytes. The conditions noted are these: for nucleotide-evoked currents: GTP and UTP applied at 3 mM (Fig. S4); for EC50: oocytes held at −70 mV, n = 9, read-out: EC50 (evoked current, dose-response). The text has this: (§1) To further investigate the functional roles of the residues involved in the base recognition, T189 and R143, we performed an electrophysiological analysis with the rat P2X4, since its electrophysiological properties have been well established. We first assessed the functional role of T189 in zfP2X4 and introduced mutations at the equivalent residue of the rat P2X4 to create three mutants (^rT186A, ^rT186V and ^rT186S; the superscript “r” means rat P2X4). […] Therefore, we examined the ^rWT and the ^rT186S mutant.
(§2) Figure 4 Current responses of ^rWT, ^rT186S, ^rH140A and ^rH140R evoked by ATP and CTP. (A,B) Representative currents of ^rWT evoked by ATP (1–300 μM) (A) and CTP (10–10,000 μM) (B). (C,D) Representative currents of the ^rT186S mutant evoked by ATP (1–300 μM) (C) and CTP (10–10,000 μM) (D). (E,F) Representative currents of the ^rH140A mutant evoked by ATP (1–300 μM) (E) and CTP (10–10,000 μM) (F). (G,H) Representative currents of the ^rH140R mutant evoked by ATP (1–300 μM) (G) and CTP (10–10,000 μM) (H). (I–K) Concentration-response curves evoked by ATP and CTP in the ^rWT and the ^rT186S mutant (I), in the ^rWT and the ^rH140A mutant (J) and in the ^rWT and the ^rH140R mutant (K). Symbols are defined in the figure, and bars depict means ± SEM (n = 7–9).
(§3) The cRNAs encoding zebrafish P2X4 (NP_705939; WT) and rat P2X4 (NP_113782.1; WT and mutants) were transcribed from pGEMHE plasmids, using a mMessage mMachine® T7 ULTRA kit (Ambion, Huntingdon, Cambridgeshire, UK). Xenopus laevis oocytes were prepared, and RNA (100 ng for zebrafish P2X4, and 20 ng for rat P2X4) was injected into the oocytes. The oocytes were incubated at 18 °C in Barth’s solution, containing 88 mM NaCl, 1 mM KCl, 2.4 mM NaHCO3, 10 mM HEPES, 0.33 mM Ca(NO3)2, 0.41 mM CaCl2, and 0.82 mM MgSO4, pH 7.4, supplemented with 50 μg/ml gentamicin, and were used for recording after 2–3 days. Recording solutions contained 100 mM NaCl, 5 mM HEPES, 2 mM MgCl2, pH 7.3, and nucleoside triphosphates (ATP, CTP, GTP, and UTP), which were freshly prepared each day. Oocytes were held at −70 mV with a bath-clamp amplifier (OC-725C, Warner Co., USA), and macroscopic currents were recorded and analyzed using the pClamp 10 software (Molecular Devices, USA)[33][34]. We measured n = 4 for zebrafish P2X4 data and n = 7–9 for rat P2X4 data.
(Two-electrode voltage clamp holds a large cell at a set potential and records current.)

Another experiment addresses T2, rat P2X4 rT186S mutant (Rattus norvegicus, UniProt P51577, T186S).
T2 construct: rat P2X4 (NP_113782.1; WT and mutants) were transcribed from pGEMHE plasmids; expressed in transfected cells; host or cells: Xenopus laevis oocytes injected with cRNA from pGEMHE
T2 sequence (P51577 1-388 T186S): T1 sequence (P51577 1-388) with T186S
Briefly: Two-Electrode Voltage Clamp recording, rat P2X4 T186S mutant in Xenopus oocytes. The conditions noted are these: for nucleotide-evoked currents: GTP and UTP applied at 3 mM (Fig. S4); for EC50: oocytes held at −70 mV, n = 9, read-out: EC50 (evoked current, dose-response).
Text: as §1, §2, §3

Another experiment concerns the target T3, rat P2X4 rH140R mutant (Rattus norvegicus, UniProt P51577, H140R).
T3 construct: rat P2X4 (NP_113782.1; WT and mutants) were transcribed from pGEMHE plasmids; expressed in transfected cells; host or cells: Xenopus laevis oocytes injected with cRNA from pGEMHE
T3 sequence (P51577 1-388 H140R): T1 sequence (P51577 1-388) with H140R
Briefly: Two-Electrode Voltage Clamp recording, rat P2X4 H140R mutant in Xenopus oocytes. The conditions noted are these: for fold reduced affinity as compared with rWT: rH140R mutant vs rWT, from EC50; for EC50 / nucleotide-evoked currents: rH140R mutant; for EC50: oocytes held at −70 mV, n = 9-10, read-out: EC50 (evoked current, dose-response); for nucleotide-evoked currents: 3 mM GTP, 3 mM UTP (Fig. S4). As to the method:
as §2
Next we assessed the functional role of R143 in zfP2X4, as its side chain forms a hydrogen bond with the cytosine ring in the CTP-bound structure (Fig. 3A,B). This arginine residue is substituted with a similar basic residue, histidine (^rH140), in rat P2X4 (Fig. 3E).
as §3

As to `Nc1ncnc2c1ncn2[C@@H]1O[C@H](COP(=O)(O)OP(=O)(O)OP(=O)(O)O)[C@@H](O)[C@H]1O` [ATP, Adenosine 5-triphosphate], on rat P2X4 WT (rWT), the nucleotide-evoked currents result is “ATP- and CTP-evoked currents were detected”; the EC50 was 16.2 ± 5.4 µM. For the same molecule, on rat P2X4 rT186S mutant, the nucleotide-evoked currents result is “ATP- and CTP-evoked currents were detected”; the concentration giving a half-maximal response (EC50) worked out at 29.9 ± 3.1 µM. On rat P2X4 rH140R mutant, the “fold reduced affinity as compared with rWT” value is “about 2 fold” and the EC50 came to 39.4 ± 5 µM.

Consider `Nc1ccn([C@@H]2O[C@H](COP(=O)(O)OP(=O)(O)OP(=O)(O)O)[C@@H](O)[C@H]2O)c(=O)n1` [CTP], for which, on rat P2X4 WT (rWT), the nucleotide-evoked currents result was “ATP- and CTP-evoked currents were detected”; the EC50 is 564 ± 170 µM. Besides, at rat P2X4 rT186S mutant, the nucleotide-evoked currents result is “ATP- and CTP-evoked currents were detected”; the EC50 came out at 557 ± 120 µM. Moreover, on rat P2X4 rH140R mutant, the “fold reduced affinity as compared with rWT” value was “about 2 fold” and the EC50 worked out at 1100 ± 140 µM.

With `Nc1nc2c(ncn2[C@@H]2O[C@H](COP(=O)(O)OP(=O)(O)OP(=O)(O)O)[C@@H](O)[C@H]2O)c(=O)[nH]1` [GTP], the nucleotide-evoked currents result was “no GTP- and UTP-evoked currents were detected” at rat P2X4 WT (rWT); “no GTP- and UTP-evoked currents were detected” at rat P2X4 rT186S mutant; “no GTP- and UTP-evoked currents were detected” on rat P2X4 rH140R mutant.

Turning to `O=c1ccn([C@@H]2O[C@H](COP(=O)(O)OP(=O)(O)OP(=O)(O)O)[C@@H](O)[C@H]2O)c(=O)[nH]1` [UTP], the nucleotide-evoked currents entry was “no GTP- and UTP-evoked currents were detected” on rat P2X4 WT (rWT); “no GTP- and UTP-evoked currents were detected” on rat P2X4 rT186S mutant; “no GTP- and UTP-evoked currents were detected” on rat P2X4 rH140R mutant.
